# Results: patent US20230055237A1, “COMPOUNDS AND METHODS FOR THE TREATMENT OF CYSTIC FIBROSIS” (Flatley Discovery Lab, LLC, priority 2019, published 2023)
# Molecular target: T1, CFTR (Homo sapiens, UniProt P13569, DEL508-508)
# T1 construct: Primary CF airway epithelial cells were obtained from the UNC Cystic Fibrosis Tissue Procurement and Cell Culture Core; host or cells: primary CF airway epithelial cells, differentiated at the air-liquid interface
# Assay: Equivalent current assay in primary CF airway epithelial cells (NAUC, combination with 1st site corrector FDL169 or VX-809)
# Assay type: cell-based
# Conditions: 37° C., 24 h
# [1] = test compound 1 μM in combination with 1st site corrector FDL169 (3 μM)
# [2] = test compound 3 μM in combination with 1st site corrector FDL169 (3 μM)
# [3] = test compound 10 μM in combination with 1st site corrector FDL169 (3 μM)
# [4] = test compound 1 μM in combination with 1st site corrector VX-809 (3 μM)
# [5] = test compound 3 μM in combination with 1st site corrector VX-809 (3 μM)
# [6] = test compound 10 μM in combination with 1st site corrector VX-809 (3 μM)
# T1 sequence (P13569 with tags, fused parts or gaps DEL508-508): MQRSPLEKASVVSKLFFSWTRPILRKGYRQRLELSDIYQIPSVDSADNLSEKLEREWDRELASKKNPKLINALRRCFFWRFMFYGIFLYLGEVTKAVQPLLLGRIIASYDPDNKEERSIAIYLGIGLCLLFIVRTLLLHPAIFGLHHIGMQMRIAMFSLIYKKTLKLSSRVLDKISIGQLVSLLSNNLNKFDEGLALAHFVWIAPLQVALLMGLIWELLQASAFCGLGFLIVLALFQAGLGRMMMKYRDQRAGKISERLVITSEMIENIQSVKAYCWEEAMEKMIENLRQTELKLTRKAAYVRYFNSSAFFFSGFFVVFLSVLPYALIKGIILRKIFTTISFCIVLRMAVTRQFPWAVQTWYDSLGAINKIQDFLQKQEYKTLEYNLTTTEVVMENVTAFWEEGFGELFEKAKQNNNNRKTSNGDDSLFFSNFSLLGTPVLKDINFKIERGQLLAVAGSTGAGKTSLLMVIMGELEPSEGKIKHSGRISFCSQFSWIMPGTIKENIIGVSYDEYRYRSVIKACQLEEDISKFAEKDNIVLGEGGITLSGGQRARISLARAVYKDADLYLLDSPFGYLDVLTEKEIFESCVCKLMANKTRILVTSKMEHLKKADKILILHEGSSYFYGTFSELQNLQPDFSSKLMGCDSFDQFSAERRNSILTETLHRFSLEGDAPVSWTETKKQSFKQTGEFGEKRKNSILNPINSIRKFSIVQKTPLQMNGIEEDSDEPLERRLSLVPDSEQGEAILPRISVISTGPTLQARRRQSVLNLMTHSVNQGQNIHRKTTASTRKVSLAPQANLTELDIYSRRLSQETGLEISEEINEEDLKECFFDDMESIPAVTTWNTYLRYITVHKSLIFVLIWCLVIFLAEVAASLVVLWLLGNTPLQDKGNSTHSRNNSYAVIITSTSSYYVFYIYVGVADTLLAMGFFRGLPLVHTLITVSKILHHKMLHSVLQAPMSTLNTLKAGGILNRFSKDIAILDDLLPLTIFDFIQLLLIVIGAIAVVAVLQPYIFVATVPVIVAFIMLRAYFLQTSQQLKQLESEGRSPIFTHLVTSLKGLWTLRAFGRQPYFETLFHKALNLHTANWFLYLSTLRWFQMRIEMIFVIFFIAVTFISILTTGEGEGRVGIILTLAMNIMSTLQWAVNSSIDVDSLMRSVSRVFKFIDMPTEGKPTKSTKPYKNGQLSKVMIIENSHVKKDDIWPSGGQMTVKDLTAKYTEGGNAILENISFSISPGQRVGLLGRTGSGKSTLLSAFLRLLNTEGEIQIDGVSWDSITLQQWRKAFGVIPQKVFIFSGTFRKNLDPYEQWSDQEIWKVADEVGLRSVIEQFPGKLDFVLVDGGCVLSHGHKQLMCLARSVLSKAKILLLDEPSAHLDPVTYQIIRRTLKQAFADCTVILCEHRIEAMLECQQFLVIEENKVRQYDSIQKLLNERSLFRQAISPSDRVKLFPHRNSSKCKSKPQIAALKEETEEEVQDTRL
SMILES,Nauc @ 1 μM [1],Nauc @ 3 μM [2],Nauc @ 10 μM [3],Nauc @ 1 μM [4],Nauc @ 3 μM [5],Nauc @ 10 μM [6]
O=C(O)[C@H]1[C@@H](C(=O)N(c2cc(Cl)cc(Cl)c2)C2CCC2)[C@H]2CC(F)(F)CN2[C@]12C(=O)Nc1c(Cl)cc(Cl)cc12 [Example 152],+++ (NAUC “+++” refers to an observed NAUC>170% of positive control),+++ (NAUC “+++” refers to an observed NAUC>170% of positive control),++ (NAUC “++” refers to an observed NAUC 170-140% of positive control),,,
CN(C)C(=O)CN(C(=O)[C@H]1[C@H]2CC(F)(F)CN2[C@]2(C(=O)Nc3c(Cl)cc(Cl)cc32)[C@H]1C(=O)O)c1cc(Cl)cc(Cl)c1 [Example 153],+ (NAUC “+” refers to an observed NAUC <140% of positive control),+ (NAUC “+” refers to an observed NAUC <140% of positive control),,,,
Cn1nc(NC(=O)[C@H]2[C@H]3CC(F)(F)CN3[C@]3(C(=O)Nc4c(Cl)cc(Cl)cc43)[C@H]2C(=O)O)c2cccnc21 [Example 123],,,,+ (NAUC “+” refers to an observed NAUC <140% of positive control),+ (NAUC “+” refers to an observed NAUC <140% of positive control),
"CC(=O)OCOC(=O)[C@H]1[C@@H](C(=O)N(C)c2cc(Cl)cc(Cl)c2)[C@H]2CC(F)(F)CN2[C@]12C(=O)Nc1c(Cl)cc(Cl)cc12 (single isomer, unassigned) [Example 256b]",,,,,,+ (NAUC “+” refers to an observed NAUC <140% of positive control)
CN(C(=O)[C@H]1[C@H]2CC(F)(F)CN2[C@]2(C(=O)N(CC3CC3)c3c(Cl)cc(Cl)cc32)[C@H]1C(=O)O)c1cc(Cl)cc(Cl)c1 [Example 201],+ (NAUC “+” refers to an observed NAUC <140% of positive control),+ (NAUC “+” refers to an observed NAUC <140% of positive control),,,,
"CN(C(=O)[C@H]1[C@H]2CC(F)(F)CN2[C@]2(C(=O)Nc3c(Cl)cc(Cl)cc32)[C@H]1C(=O)NCC(F)(F)F)c1cc(Cl)cc(Cl)c1 (single isomer, unassigned) [Example 232b]",,,,+ (NAUC “+” refers to an observed NAUC <140% of positive control),+ (NAUC “+” refers to an observed NAUC <140% of positive control),+ (NAUC “+” refers to an observed NAUC <140% of positive control)
"CC(C)(C)CN(C(=O)[C@H]1[C@H]2C[C@](C)(O)CN2[C@]2(C(=O)Nc3c(Cl)cc(Cl)cc32)[C@H]1C(=O)O)c1cc(Cl)cc(Cl)c1 [Example 91, (1′R,2′S,3R,6′S,7a′R)-5,7-dichloro-1′-((3,5-dichlorophenyl)(neopentyl)carbamoyl)-6′-hydroxy-6′-methyl-2-oxo-1′,2′,5′,6′,7′,7a′-hexahydrospiro[indoline-3,3′-pyrrolizine]-2′-carboxylic acid]",++ (NAUC “++” refers to an observed NAUC 170-140% of positive control),++ (NAUC “++” refers to an observed NAUC 170-140% of positive control),,,,
O=C(Nc1cc(Cl)cc(Cl)c1)C1CN(CC(F)(F)F)C2(C(=O)Nc3c(Cl)cc(Cl)cc32)C1C(=O)O (stereo not shown) [Example 41],,,,,+ (NAUC “+” refers to an observed NAUC <140% of positive control),++ (NAUC “++” refers to an observed NAUC 170-140% of positive control)
O=C(O)[C@H]1[C@@H](C(=O)N(CC23CC(F)(C2)C3)c2cc(Cl)cc(Cl)c2)[C@H]2CC(F)(F)CN2[C@]12C(=O)Nc1c(Cl)cc(Cl)cc12 [Example 188],+++ (NAUC “+++” refers to an observed NAUC>170% of positive control),++ (NAUC “++” refers to an observed NAUC 170-140% of positive control),++ (NAUC “++” refers to an observed NAUC 170-140% of positive control),,,
C[C@]1(OCc2ccccc2)C[C@@H]2[C@H](C(=O)N(CC3CCCC3)c3cc(Cl)cc(Cl)c3)[C@H](C(=O)O)[C@@]3(C(=O)Nc4c(Cl)cc(Cl)cc43)N2C1 [Example 94],++ (NAUC “++” refers to an observed NAUC 170-140% of positive control),++ (NAUC “++” refers to an observed NAUC 170-140% of positive control),,,,
